A compilation of properties of binary mixtures (doi:10.1016/j.molliq.2016.02.091)

Assay: xn = mol fraction of the nth substance listed
Details: 101 kPa

CC[n+]1ccn(C)c1.COS(=O)(=O)[O-] + CC(=O)O
speed of sound [m/s]
Details	x2 = 0	x2 = 0.1669	x2 = 0.3003	x2 = 0.5004	x2 = 0.6432	x2 = 0.7503	x2 = 0.8336	x2 = 0.9001	x2 = 0.9546	x2 = 0.9783
298.15 K	1758	1713	1665	1593	1501	1419	–	1274	1202	–
303.15 K	1745	1702	1650	1580	–	1403	–	1258	–	1151
308.15 K	1734	–	1641	1568	1473	1391	1318	1246	1172	1136
313.15 K	1723	1681	1624	–	1456	1371	1298	1225	1152	1116

CC[n+]1ccn(C)c1.COS(=O)(=O)[O-] + CCC(=O)O
speed of sound [m/s]
Details	x2 = 0	x2 = 0.1332	x2 = 0.2478	x2 = 0.4345	x2 = 0.5804	x2 = 0.6975	x2 = 0.7935	x2 = 0.8737	x2 = 0.9417	x2 = 0.9719
298.15 K	1758	1715	1669	1590	1509	1430	1356	1285	1215	–
303.15 K	1745	1701	1656	1576	1493	1413	1339	1267	1197	1162
308.15 K	1734	1689	1642	1563	1478	1396	1321	1249	1178	1143
313.15 K	1723	1678	1630	1549	1462	1380	1304	1231	1160	–

CC(=O)O + CC[n+]1ccn(C)c1.COS(=O)(=O)[O-]
x1 = 1
Details	speed of sound [m/s]
298.15 K	1133
303.15 K	1117
308.15 K	1102
313.15 K	1082

CCC(=O)O + CC[n+]1ccn(C)c1.COS(=O)(=O)[O-]
x1 = 1
Details	speed of sound [m/s]
303.15 K	1129
308.15 K	1110
